The text below walks through data of PMC2748101, “Transcriptome analysis of the responses of Staphylococcus aureus to antimicrobial peptides and characterization of the roles of vraDE and vraSR in antimicrobial resistance” (BMC Genomics, 2009).

For assay [1], the system named is ΔvraDE/S. aureus Newman. The assay is described as follows: microbe, parasite or virus in culture. The following applies: Staphylococcus aureus.
For assay [2], the system named is S. aureus RN4220. The assay is described as follows: microbe, parasite or virus in culture. Conditions: Staphylococcus aureus.
For assay [3], the system named is ΔvraDE/ RN4220. The assay is described as follows: microbe, parasite or virus in culture. Conditions: Staphylococcus aureus.
Assay [4] concerns ΔvraSR/S. aureus Newman. The assay is described as follows: microbe, parasite or virus in culture. The following applies: Staphylococcus aureus.
The subject of assay [5] is ΔvraSR/ RN4220. The assay can be described thus: microbe, parasite or virus in culture. The following applies: Staphylococcus aureus.
For assay [6], the system named is S. aureus Newman.

The structures appear in SMILES notation. ≈ marks a conversion by molar mass, not a printed value.

Regarding `CN[C@H](CC(C)C)C(=O)N[C@H]1C(=O)N[C@@H](CC(N)=O)C(=O)N[C@H]2C(=O)N[C@H]3C(=O)N[C@H](C(=O)N[C@H](C(=O)O)c4cc(O)cc(O)c4-c4cc3ccc4O)[C@H](O)c3ccc(c(Cl)c3)Oc3cc2cc(c3O[C@@H]2O[C@H](CO)[C@@H](O)[C@H](O)[C@H]2O[C@H]2C[C@](C)(N)[C@H](O)[C@H](C)O2)Oc2ccc(cc2Cl)[C@H]1O` [Vancomycin], the MIC in assay [1] worked out at 1 µg/mL (≈ 0.69 µM); in assay [2], 1 µg/mL (≈ 0.69 µM); in assay [3], 1 µg/mL (≈ 0.69 µM); in assay [4], 1 µg/mL (≈ 0.69 µM); in assay [5], 0.5 µg/mL (≈ 0.345 µM); in assay [6], 1 µg/mL (≈ 0.69 µM).
